One experiment has as its target T1, DGK α kinase (Homo sapiens, UniProt P23743).
T1 construct: purchased Reaction Biology Corp. (contract assay service)
The experiment in a line: DGKalpha kinase ADP Glo assay run by Reaction Biology Corp. The class given is biochemical. The settings on record: 2 nM kinase, 50 µM ATP, 500 μM DLG, 10-dose duplicate. How it is done: (§1) DGK α and ζ kinases use ATP to phosphorylate the substrate 1,2-dilauroyl-sn-glycerol (DLG). ATP is converted to ADP as a result of this enzymatic reaction.
(§2) After the kinase reaction, an ATP-depletion reagent is added to terminate the kinase reaction and deplete any remaining ATP, leaving only ADP. Second, a detection reagent is added to simultaneously convert ADP to ATP and allow the newly synthesized ATP to be converted to light using a coupled luciferase/luciferin reaction.
(§3) DGK α and ζ kinase ADP Glo assays were ran by Reaction Biology Corp., 1 Great Valley Parkway, Suite 2, Malvern, 19355, PA, USA. Information provided by the service provider are the following: DGK α and ζ kinases were used at 2 nM final concentration. Reactions were carried out at 50 µM ATP. 500 μM of the substrate DLG (Dilauroyl-sn-glycerol) was used.

In a further experiment the target is T2, DGK ζ kinase (Homo sapiens, UniProt Q13574).
T2 construct: purchased Reaction Biology Corp. (contract assay service)
T2 sequence (Q13574 whole entry): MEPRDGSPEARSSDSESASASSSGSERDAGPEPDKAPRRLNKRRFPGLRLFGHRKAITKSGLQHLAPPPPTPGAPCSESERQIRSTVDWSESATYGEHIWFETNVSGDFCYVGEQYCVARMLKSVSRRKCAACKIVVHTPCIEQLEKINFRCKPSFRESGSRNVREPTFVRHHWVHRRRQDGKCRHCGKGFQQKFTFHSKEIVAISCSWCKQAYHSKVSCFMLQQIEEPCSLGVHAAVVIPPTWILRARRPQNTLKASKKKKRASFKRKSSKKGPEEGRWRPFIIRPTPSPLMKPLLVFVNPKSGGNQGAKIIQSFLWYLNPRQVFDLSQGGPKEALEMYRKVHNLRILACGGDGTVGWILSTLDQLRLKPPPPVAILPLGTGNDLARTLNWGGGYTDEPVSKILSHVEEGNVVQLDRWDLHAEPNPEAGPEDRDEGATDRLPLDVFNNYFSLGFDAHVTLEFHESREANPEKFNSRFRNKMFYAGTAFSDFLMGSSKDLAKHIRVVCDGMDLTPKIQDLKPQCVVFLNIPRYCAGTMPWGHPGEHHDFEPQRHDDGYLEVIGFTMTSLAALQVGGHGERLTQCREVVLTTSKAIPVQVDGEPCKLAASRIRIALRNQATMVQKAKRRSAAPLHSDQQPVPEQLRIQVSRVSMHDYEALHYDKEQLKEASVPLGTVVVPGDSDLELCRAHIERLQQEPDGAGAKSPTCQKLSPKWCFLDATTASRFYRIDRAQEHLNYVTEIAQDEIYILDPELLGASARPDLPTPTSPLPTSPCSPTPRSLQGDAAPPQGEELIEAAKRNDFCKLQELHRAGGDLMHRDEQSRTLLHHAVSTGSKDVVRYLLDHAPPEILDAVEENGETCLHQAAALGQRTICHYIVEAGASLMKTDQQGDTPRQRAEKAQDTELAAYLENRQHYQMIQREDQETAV
The experiment in a line: DGKzeta kinase ADP Glo assay run by Reaction Biology Corp. The class given is biochemical. The settings on record: 2 nM kinase, 50 µM ATP, 500 μM DLG, 10-dose duplicate. As for the experimental part:
as §1, §2, §3
In general terms: In ADP-Glo the light output rises with the ADP produced.

Consider seven compounds from US20260138976A1 (Hoffmann-La Roche Inc., priority 2022, published 2026).

T1 sequence (P23743 whole entry): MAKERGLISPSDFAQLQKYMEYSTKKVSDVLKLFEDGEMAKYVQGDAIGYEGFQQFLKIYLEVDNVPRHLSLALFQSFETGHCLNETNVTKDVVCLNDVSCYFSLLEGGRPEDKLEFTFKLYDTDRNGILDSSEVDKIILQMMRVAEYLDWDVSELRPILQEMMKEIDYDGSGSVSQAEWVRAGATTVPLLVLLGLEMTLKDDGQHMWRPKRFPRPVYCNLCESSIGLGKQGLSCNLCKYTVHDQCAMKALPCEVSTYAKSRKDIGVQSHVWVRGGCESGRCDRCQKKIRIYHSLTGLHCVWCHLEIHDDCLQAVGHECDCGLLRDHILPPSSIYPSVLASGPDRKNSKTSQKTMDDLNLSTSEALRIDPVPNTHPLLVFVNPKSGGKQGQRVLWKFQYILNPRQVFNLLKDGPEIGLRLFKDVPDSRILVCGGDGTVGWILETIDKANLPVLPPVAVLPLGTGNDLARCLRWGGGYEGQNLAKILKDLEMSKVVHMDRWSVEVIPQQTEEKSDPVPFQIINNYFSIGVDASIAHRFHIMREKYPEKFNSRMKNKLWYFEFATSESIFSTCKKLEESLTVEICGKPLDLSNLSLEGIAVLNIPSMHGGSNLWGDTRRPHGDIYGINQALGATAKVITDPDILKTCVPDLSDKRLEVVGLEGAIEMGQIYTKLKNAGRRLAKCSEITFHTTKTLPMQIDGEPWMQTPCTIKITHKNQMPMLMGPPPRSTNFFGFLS

The term IC50 denotes the point on the concentration scale where inhibition reaches its midpoint. A low value points to greater potency. Regarding `N[C@H]1CS(=O)(=O)c2ccc(-c3nnc(N4CCOC(F)(F)C4)o3)cc2N(Cc2ccc(-c3noc(C(F)(F)F)n3)cc2)C1=O` [Example 78, (3R)-3-amino-7-[5-(2,2-difluoromorpholin-4-yl)-1,3,4-oxadiazol-2-yl]-1,1-dioxo-5-[[4-[5-(trifluoromethyl)-1,2,4-oxadiazol-3-yl]phenyl]methyl]-2,3-dihydro-1λ^6,5-benzothiazepin-4-one], the IC50 against DGK α kinase is 105 nM; against DGK ζ kinase it was 25.4 nM.
On the same counts, the results for `CC(C)(C#N)c1nnc(-c2ccc3c(c2)N(Cc2ccc(-c4ccc(C(F)(F)F)cn4)cc2)C(=O)[C@@H](N)CS3(=O)=O)o1` [Example 47] are 238 nM and 71.3 nM.
For `COc1ccc(-c2ccc(CN3C(=O)[C@@H](N)CS(=O)(=O)c4ccc(-c5nnc(N(C)CC(F)(F)F)o5)cc43)cc2)cc1` [Example 81, (3R)-3-amino-5-[[4-(4-methoxyphenyl)phenyl]methyl]-7-[5-[methyl(2,2,2-trifluoroethyl)amino]-1,3,4-oxadiazol-2-yl]-1,1-dioxo-2,3-dihydro-1λ^6,5-benzothiazepin-4-one], in that order: 226 nM and 53.5 nM.
For `Cc1noc(-c2ccc(CN3C(=O)[C@@H](N)CS(=O)(=O)c4ccc(-c5nnc(C(C)(C)C)o5)cc43)cc2)n1` [Example 20, (3R)-3-amino-7-(5-tert-butyl-1,3,4-oxadiazol-2-yl)-5-[[4-(3-methyl-1,2,4-oxadiazol-5-yl)phenyl]methyl]-1,1-dioxo-2,3-dihydro-1λ^6,5-benzothiazepin-4-one], in that order: 1410 nM and 439 nM.
`C[C@@](N)(c1nnc(-c2ccc3c(c2)N(Cc2ccc(-c4noc(C(F)(F)F)n4)cc2)C(=O)[C@@H](N)CS3(=O)=O)o1)C(F)(F)F` [Example 52, (3R)-3-amino-7-[5-[(1R)-1-amino-2,2,2-trifluoro-1-methyl-ethyl]-1,3,4-oxadiazol-2-yl]-1,1-dioxo-5-[[4-[5-(trifluoromethyl)-1,2,4-oxadiazol-3-yl]phenyl]methyl]-2,3-dihydro-1λ^6,5-benzothiazepin-4-one]: the IC50 amounted to 63.6 nM on DGK α kinase and 101 nM on DGK ζ kinase.
On the same counts, the results for `C[C@](N)(c1nnc(-c2ccc3c(c2)N(Cc2ccc(-c4noc(C(F)(F)F)n4)cc2)C(=O)[C@@H](N)CS3(=O)=O)o1)C(F)(F)F` [Example 53, (3R)-3-amino-7-[5-[(1S)-1-amino-2,2,2-trifluoro-1-methyl-ethyl]-1,3,4-oxadiazol-2-yl]-1,1-dioxo-5-[[4-[5-(trifluoromethyl)-1,2,4-oxadiazol-3-yl]phenyl]methyl]-2,3-dihydro-1λ^6,5-benzothiazepin-4-one] are 160 nM and 92.8 nM.
On the same counts, the results for `CC(C)(C#N)c1nnc(-c2ccc3c(c2)N(Cc2ccc(-c4ccc(OC(F)(F)F)cn4)cc2)C(=O)[C@@H](N)CS3(=O)=O)o1` [Example 124] are 23.3 nM and 56.7 nM.
